# Results taken from US7342014B2, “Diamine derivatives” (Daiichi Pharmaceutical Co., Ltd., priority 2001, dated 2008).
# Counter-ions that a name gives are not always drawn.
row,Structure (SMILES),melting point
1,CC(C)N1CCc2nc(C(=O)N[C@@H]3CN(S(C)(=O)=O)C[C@H]3NC(=O)c3cc4cc(Cl)ccc4[nH]3)sc2C1 (as salt: hydrochloride),230 to 235 °C (dec.)
2,CN1CCc2nc(C(=O)N[C@@H]3CNC[C@H]3NC(=O)c3cc4cc(Cl)ccc4[nH]3)sc2C1 (as salt: hydrochloride),248 to 250 °C (dec.)
3,CC(=O)N1CC[C@H](NC(=O)c2cc3cc(F)ccc3[nH]2)[C@H](NC(=O)c2nc3c(s2)CN(C)CC3)C1 (relative stereo) (as salt: hydrochloride),202 °C (dec.)
4,COC1CC(C(=O)N2CC[C@H](NC(=O)c3cc4cc(Cl)ccc4[nH]3)[C@H](NC(=O)c3nc4c(s3)CN(C)CC4)C2)C1 (relative stereo) (as salt: hydrochloride),191 °C (dec.)
5,COCC(=O)N1CC[C@H](NC(=O)c2cc3cc(Cl)ccc3[nH]2)[C@H](NC(=O)c2nc3c(s2)CN(C(C)(C)CO)CC3)C1 (relative stereo) (as salt: hydrochloride),221 to 232 °C (dec.)
6,COCCN1CC[C@H](NC(=O)c2cc3cc(Cl)ccc3[nH]2)[C@H](NC(=O)c2nc3c(s2)CN(C)CC3)C1 (relative stereo) (as salt: hydrochloride),238 to 242 °C (dec.)

# Results, then the compound that gave them:
row,melting point,Structure (SMILES)
1,254 to 258 °C (dec.),"CC(=O)N1C[C@@H](NC(=O)c2cc3cc(Cl)ccc3[nH]2)[C@H](NC(=O)c2nc3c(s2)CN(C(C)C)CC3)C1 (as salt: hydrochloride) [Example 114, N-((3R,4R)-1-Acetyl-4-{[(5-chloroindol-2-yl)carbonyl]-amino}pyrrolidin-3-yl)-5-isopropyl-4,5,6,7-tetrahydro-thiazolo[5,4-c]pyridine-2-carboxamide hydrochloride]"
2,225 to 228 °C (dec.),"CCOC(=O)N1C[C@@H](NC(=O)c2cc3cc(Cl)ccc3[nH]2)[C@H](NC(=O)c2nc3c(s2)CN(C(C)C)CC3)C1 (as salt: hydrochloride) [Example 116, Ethyl (3R,4R)-3-{[(5-chloroindol-2-yl)carbonyl]amino}-4-{[(5-isopropyl-4,5,6,7-tetrahydrothiazolo[5,4-c]pyridin-2-yl)carbonyl]amino}pyrrolidine-1-carboxylate hydrochloride]"
3,207 to 220 °C (dec.),"COCC(=O)N1CC[C@H](NC(=O)c2cc3cc(Cl)ccc3[nH]2)[C@H](NC(=O)c2nc3c(s2)CN(C)CC3)C1 (as salt: hydrochloride) [Example 171, N-[(3R,4S)-4-{[(5-Chloroindol-2-yl)carbonyl]amino}-1-(2-methoxyacetyl)piperidin-3-yl]-5-methyl-4,5,6,7-tetrahydro-thiazolo[5,4-c]pyridine-2-carboxamide hydrochloride]"
4,213 to 230 °C,"COCC(=O)N1CC[C@@H](NC(=O)c2cc3cc(Cl)ccc3[nH]2)[C@H](NC(=O)c2nc3c(s2)CN(C)CC3)C1 (as salt: hydrochloride) [Example 172, N-[(3R,4R)-4-{[(5-Chloroindol-2-yl)carbonyl]amino}-1-(2-methoxyacetyl)piperidin-3-yl]-5-methyl-4,5,6,7-tetrahydro-thiazolo[5,4-c]pyridine-2-carboxamide hydrochloride]"
5,266 to 272 °C (dec.),CC(C)C(=O)N1CC[C@H](NC(=O)c2cc3cc(Cl)ccc3[nH]2)[C@H](NC(=O)c2nc3c(s2)CN(C)CC3)C1 (relative stereo) (as salt: hydrochloride)
6,250 to 255 °C (dec.),CN1CCc2nc(C(=O)N[C@@H]3CN(C(=O)C(C)(C)C)CC[C@@H]3NC(=O)c3cc4cc(Cl)ccc4[nH]3)sc2C1 (relative stereo) (as salt: hydrochloride)
7,190 to 208 °C (dec.),COCC(=O)N1CC[C@H](NC(=O)c2cc3cc(F)ccc3[nH]2)[C@H](NC(=O)c2nc3c(s2)CN(C)CC3)C1 (relative stereo) (as salt: hydrochloride)
8,214 to 228 °C (dec.),COCC(=O)N1CC[C@H](NC(=O)c2cc3cc(F)ccc3[nH]2)[C@H](NC(=O)c2nc3c(s2)CN(C(C)C)CC3)C1 (relative stereo) (as salt: hydrochloride)
